Test results published in publication PMC4742142, “Identification of novel, in vivo active Chk1 inhibitors utilizing structure guided drug design” (Oncotarget, 2015).
“Also recorded” adds a separate entry of the source. Like-named read-outs stand apart in the source and are kept apart here.

Columns and labels:
Chk1 [1] = target: T1, Chk1 (Homo sapiens, UniProt O14757); assay: Western blotting of pChk1 (S296) in HT29 cells (gemcitabine or camptothecin; washout); type: cell-based; settings: 500 nM for 1 hour then drug free media
T1 sequence (O14757 1-476): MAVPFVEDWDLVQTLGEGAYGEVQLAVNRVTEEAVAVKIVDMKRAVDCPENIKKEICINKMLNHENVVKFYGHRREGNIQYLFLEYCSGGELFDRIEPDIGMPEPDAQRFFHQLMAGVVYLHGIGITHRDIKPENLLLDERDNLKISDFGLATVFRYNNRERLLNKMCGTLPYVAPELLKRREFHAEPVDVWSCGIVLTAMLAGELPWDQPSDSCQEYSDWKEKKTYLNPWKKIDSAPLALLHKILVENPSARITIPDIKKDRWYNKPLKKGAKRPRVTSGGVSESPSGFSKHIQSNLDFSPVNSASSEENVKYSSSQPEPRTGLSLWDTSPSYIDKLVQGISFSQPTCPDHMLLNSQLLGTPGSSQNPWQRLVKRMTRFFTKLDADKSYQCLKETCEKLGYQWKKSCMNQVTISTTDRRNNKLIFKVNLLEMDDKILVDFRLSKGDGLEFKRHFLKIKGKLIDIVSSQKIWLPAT
Protocol: Figure 3 Effect of V158411 on etoposide, gemcitabine and camptothecin induced DNA damage checkpoint and cell cycle proteins A. HT29 cells were exposed to increasing concentrations of V158411 for 1 hour followed by 25 μM etoposide for a further 5 hours. Auto-phosphorylation of Chk1 and Chk2 was determined by immunoblotting. B. HT29 cells were treated with gemcitabine (25 nM) or camptothecin (50 nM) for 16 hours followed by increasing doses of V158411 for a further 24 hours. C. HT29 cells were treated with 500 nM V158411 for 1 hour, media removed and replaced with drug free. Cells were harvested at the indicated time points post the removal of V158411. D. HT29 cells were treated with 0 or 100 nM camptothecin for 16 hours followed by V158411 for 2 - 24 hours. After the indicated time, media was removed and replaced with drug free media. All cells were harvested 24 hours after the initial addition of V158411. Protein expression was characterized by immunoblotting as described in materials and methods.
Anti-pHistone H3 (S10) was obtained from Millipore; pCdc2 (Y15), pCdc25C (S216), Chk1, pChk1 (S317), pChk2 (S516), Cyclin B1, pH2AX (S139), GAPDH and Actin from Cell Signaling Technologies and pChk1 (S296) from Abcam. […] Protein concentration was determined using BCA kit (Pierce). […]

[2] = Pharmacokinetics of V158411 and irinotecan, single and combination administration; type: in vivo; settings: mouse; for half-life / CL/F: female, Balb/C, plasma; for CL/F: read-out: CL or CL/F
Protocol: Dosing of animals and collection of samples was conducted by Quotient Bioresearch (Rushden) Ltd, UK. V158411 was administered by intravenous (IV) bolus injection to female Balb/C mice, male Sprague-Dawley rats or male beagle dogs. Plasma samples were prepared by protein precipitation with acetonitrile containing internal standard (IS; dextromethorphan, 0.5 μg/mL); the analysis plate was centrifuged at 3,000 rpm for 10 minutes at 4°C. […] The ratios of analyte against IS peak areas were calculated, and concentrations derived from calibration lines generated by Quanlynx (Waters Ltd.).
Pharmacokinetic parameters were calculated using the software package WinNonLin (Pharsight Corp.). Data was analyzed using noncompartmental analysis and fitted using plasma concentration versus time curves.

CDK1 = CDK1 (Homo sapiens, UniProt P06493); assay: In vitro kinase assay, CDK1; type: biochemical
Sequence of CDK1 (P06493 whole entry): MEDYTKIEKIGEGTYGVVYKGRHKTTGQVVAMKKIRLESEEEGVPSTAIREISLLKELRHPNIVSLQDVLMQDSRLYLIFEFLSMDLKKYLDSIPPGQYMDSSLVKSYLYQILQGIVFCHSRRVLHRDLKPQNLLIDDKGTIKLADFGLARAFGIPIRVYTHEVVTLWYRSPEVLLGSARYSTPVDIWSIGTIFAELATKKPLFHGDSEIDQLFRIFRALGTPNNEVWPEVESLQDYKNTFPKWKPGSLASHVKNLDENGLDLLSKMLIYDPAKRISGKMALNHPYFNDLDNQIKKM
Sequence of CDK1 (P14635 whole entry partner): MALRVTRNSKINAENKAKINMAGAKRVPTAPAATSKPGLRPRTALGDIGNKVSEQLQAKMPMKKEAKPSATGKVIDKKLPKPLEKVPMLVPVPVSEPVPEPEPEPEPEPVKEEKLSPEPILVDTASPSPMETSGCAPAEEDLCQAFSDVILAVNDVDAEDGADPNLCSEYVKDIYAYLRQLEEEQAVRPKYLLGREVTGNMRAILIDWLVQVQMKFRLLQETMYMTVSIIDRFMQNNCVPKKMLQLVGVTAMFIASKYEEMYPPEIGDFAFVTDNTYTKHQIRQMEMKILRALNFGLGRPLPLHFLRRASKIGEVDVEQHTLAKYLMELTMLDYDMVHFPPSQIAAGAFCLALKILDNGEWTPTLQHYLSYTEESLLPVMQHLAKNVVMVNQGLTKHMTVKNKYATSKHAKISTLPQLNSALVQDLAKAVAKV
Protocol: (§1) Kinase assays were performed as previously described.

SW620 xenograft = SW620 xenograft antitumor efficacy
Description: Xenograft studies were undertaken by Charles River Laboratories Discovery Services, North Carolina. On the day of tumor cell implant, Colo205 cells were harvested and resuspended in 50% Matrigel matrix (BD Biosciences) in PBS at a concentration of 5 × 10^6 cells/mL. Each test mouse received 1 × 10^6 Colo205 cells implanted subcutaneously (SC) in the flank of female athymic nude mice (HRLN or NCr nu/nu), and tumor growth was monitored as the average size approached 100-150 mm^3. The SW620 tumor line was maintained by serial SC transplantation in female athymic nude mice (HRLN nu/nu). Tumor fragments, approximately 1 mm^3 each, were implanted SC into the right flank of each animal and allowed to grow towards a target size of 100-150 mm^3. On day 1 of the study, tumors were randomized into treatment groups before compound administration.
V158411 was formulated in D5W and administered via IV injection into the tail vein. Cyclic treatment regimens were followed and treatment ranged from 2-3 cycles.
Tumor size was measured with electronic calipers and tumor volume calculated according to the formula ((width × width) × length) /2.
The study endpoint was defined as a tumor volume of 750 mm^3 for Colo205 or 1500 mm^3 for SW620, or day 60, whichever came first. Each animal was euthanized when its' tumor reached this endpoint. The time to endpoint (TTE) for each mouse was calculated from the equation TTE = (log10(endpoint volume)-b)/m where b is the intercept and m the slope of the line obtained by linear regression of a log-transformed tumor growth data set.

Chk1 [3] = target: T1, Chk1; assay: In vitro kinase assay, Chk1; type: biochemical
Protocol: as §1

[4] = other: V158411 intravenous, irinotecan intraperitoneal
[5] = other: irinotecan intraperitoneal, V158411 intravenous
[6] = SW620, 100 mg/kg irinotecan followed by 30 mg/kg V158411
[7] = SW620, 100 mg/kg irinotecan followed by 60 mg/kg V158411

## CN(C)CC(C)(C)COc1ccc2[nH]c(-c3cc(NC(=O)c4cnn(Cc5ccccc5)c4)c[nH]c3=O)cc2c1 [V158411]
Chk1 [1]
  duration of Chk1 inhibition (pChk1 S296) after removal of compound from the culture media: at least 24 hours
[2]; [4]
  half-life: 3.4 h
  CL/F: 17.7 mL/min/kg
[2]; [5]
  half-life: 3.3 h
  CL/F: 8.2 mL/min/kg
[2]; combination (C) versus single administration (I)
  AUClast fold change: 2.2 fold
CDK1
  IC50: > 50000 nM
CDK1; Chk1 versus CDK1
  selectivity for CDK1: more than 10 000 fold
SW620 xenograft; [6]
  %TGD: 117%
  T-C: 15.5
SW620 xenograft; SW620, 100 mg/kg irinotecan followed by 30 mg/kg V158411 2 hours later
  Median TTE: 28.8 days
SW620 xenograft; [7]
  %TGD: 154%
  T-C: 21.3
SW620 xenograft; SW620, 100 mg/kg irinotecan followed by 60 mg/kg V158411 2 hours later
  Median TTE: 35.1 days
SW620 xenograft; SW620, V158411 monotherapy
  single agent anti-tumor activity: did not inhibit tumor growth; also recorded: no single agent activity
SW620 xenograft; SW620, irinotecan plus 60 mg/kg V158411, day 5
  mean body weight nadir: −13.3%
Chk1 [3]
  IC50: 4.4 nM
